Several values for one entry are separate records, joined by “and”; a condition that tells them apart may be missing. Equal entries are not always repeated. Toxic doses and inconclusive results are not listed.

The subject of this test is CD2F1 mice, L1210 leukemia ip, survival T/C. Put plainly: NCI In Vivo Anticancer Drug Screen. Data for tumor model L1210 Leukemia (intraperitoneal) in CD2F1 (CDF1) mice. The following applies: higher = longer survival. The method, boiled down:
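Compound-dosed mice with transplantable tumor versus matched vehicle controls; endpoint ratio T/C reported.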

The mark [1] stands for this setting: endpoint: mean survival time, dose: 100.0 mg/kg/injection, schedule: Q04DX002 (ip), vehicle: saline with Tween-80.
The mark [2] stands for this setting: endpoint: mean survival time, dose: 200.0 mg/kg/injection, schedule: Q04DX002 (ip), vehicle: saline with Tween-80.
[3] abbreviates: endpoint: mean survival time, dose: 400.0 mg/kg/injection, schedule: Q04DX002 (ip), vehicle: saline with Tween-80.
The mark [4] stands for this setting: endpoint: mean survival time, dose: 100.0 mg/kg/injection, schedule: Q01DX009 (ip), vehicle: saline with Tween-80.
Where [5] appears, read: endpoint: mean survival time, dose: 200.0 mg/kg/injection, schedule: Q01DX009 (ip), vehicle: saline with Tween-80.
Setting [6] is: endpoint: mean survival time, dose: 400.0 mg/kg/injection, schedule: Q01DX009 (ip), vehicle: saline with Tween-80.

As to `Nc1ccc(/C=C/C(=O)Nc2ccc(S(=O)(=O)F)cc2)cc1`, the T/C reads like this: (endpoint: mean survival time, dose: 100.0 mg/kg/injection, schedule: Q01DX001 (ip), vehicle: saline with Tween-80) 98 % of control; (endpoint: mean survival time, dose: 200.0 mg/kg/injection, schedule: Q01DX001 (ip), vehicle: saline with Tween-80) 95 % of control.

On to `O=C(O)C1C2C=CC3(O2)C(=O)N(Cc2ccccc2)C(=O)C13` (stereo unspecified), for which the T/C is 95 % of control under setting [1], 103 % of control under setting [2] and 98 % of control under setting [3].

In the case of `Cc1cc(N)nc2ccccc12`, the T/C is 101 % of control (endpoint: mean survival time, dose: 3.12 mg/kg/injection, schedule: Q04DX002 (ip), vehicle: saline with Tween-80); 105 % of control (endpoint: mean survival time, dose: 6.25 mg/kg/injection, schedule: Q04DX002 (ip), vehicle: saline with Tween-80); 94 % of control and 101 % of control (endpoint: mean survival time, dose: 12.5 mg/kg/injection, schedule: Q04DX002 (ip), vehicle: saline with Tween-80).

In the case of `CN1C(=O)[N+]2(CCCCC2)N=C1[O-]`, the T/C by setting is: under setting [4], 96 % of control; (endpoint: mean survival time, dose: 100.0 mg/kg/injection, schedule: Q04DX003 (ip), vehicle: saline) 91 % of control; under setting [5], 102 % of control; (endpoint: mean survival time, dose: 200.0 mg/kg/injection, schedule: Q04DX003 (ip), vehicle: saline) 97 % of control; under setting [6], 106 % of control; (endpoint: mean survival time, dose: 400.0 mg/kg/injection, schedule: Q04DX003 (ip), vehicle: saline) 95 % of control.

As to `CCOC(=O)c1cnc[nH]1`, the T/C is 103 % of control under setting [1], 95 % of control under setting [2] and 103 % of control under setting [3].

For `NNC(=O)C1C2CCCCC21` (stereo unspecified), the T/C by setting is: (endpoint: mean survival time, dose: 25.0 mg/kg/injection, schedule: Q01DX009 (ip), vehicle: saline with Tween-80) 94 % of control; (endpoint: mean survival time, dose: 50.0 mg/kg/injection, schedule: Q01DX009 (ip), vehicle: saline with Tween-80) 97 % of control; under setting [4], 97 % of control.

On to `O=C(Cl)CCc1cc(Cl)no1`, for which the T/C runs as follows: (endpoint: mean survival time, dose: 25.0 mg/kg/injection, schedule: Q04DX003 (ip), vehicle: olive oil, sesame oil, peanut oil) 96 % of control; (endpoint: mean survival time, dose: 50.0 mg/kg/injection, schedule: Q04DX003 (ip), vehicle: olive oil, sesame oil, peanut oil) 96 % of control; (endpoint: mean survival time, dose: 100.0 mg/kg/injection, schedule: Q04DX003 (ip), vehicle: olive oil, sesame oil, peanut oil) 103 % of control; (endpoint: mean survival time, dose: 200.0 mg/kg/injection, schedule: Q04DX003 (ip), vehicle: olive oil, sesame oil, peanut oil) 94 % of control; (endpoint: mean survival time, dose: 400.0 mg/kg/injection, schedule: Q04DX003 (ip), vehicle: olive oil, sesame oil, peanut oil) 103 % of control.

Turning to `CC(CN(C)C)c1ccccn1` (stereo unspecified), the T/C was 106 % of control (endpoint: mean survival time, dose: 75.0 mg/kg/injection, schedule: Q01DX001 (ip), vehicle: other); 106 % of control (endpoint: mean survival time, dose: 150.0 mg/kg/injection, schedule: Q01DX001 (ip), vehicle: other); 106 % of control (endpoint: mean survival time, dose: 300.0 mg/kg/injection, schedule: Q01DX001 (ip), vehicle: other).

For `CN(C)C(=S)SCc1ccccc1`, the T/C (endpoint: mean survival time, dose: 100.0 mg/kg/injection, schedule: Q04DX003 (ip), vehicle: other) was 111 % of control; the T/C (endpoint: mean survival time, dose: 200.0 mg/kg/injection, schedule: Q04DX003 (ip), vehicle: other) was 103 % of control; the T/C (endpoint: mean survival time, dose: 400.0 mg/kg/injection, schedule: Q04DX003 (ip), vehicle: other) was 112 % of control.

In the case of `OC(Cc1nc2ccccc2[nH]1)c1nc2ccccc2[nH]1` (stereo unspecified), the T/C was 104 % of control (endpoint: mean survival time, dose: 50.0 mg/kg/injection, schedule: Q01DX009 (ip), vehicle: Klucel (hydroxypropylcellulose) (HPC)); 97 % of control (endpoint: mean survival time, dose: 100.0 mg/kg/injection, schedule: Q01DX009 (ip), vehicle: Klucel (hydroxypropylcellulose) (HPC)); 101 % of control (endpoint: mean survival time, dose: 200.0 mg/kg/injection, schedule: Q01DX009 (ip), vehicle: Klucel (hydroxypropylcellulose) (HPC)).

With `O=C(Nc1ccccc1Cl)c1ccc([N+](=O)[O-])cc1`, the T/C runs as follows: under setting [4], 94 % of control; (endpoint: mean survival time, dose: 100.0 mg/kg/injection, schedule: Q04DX003 (ip), vehicle: saline with Tween-80) 96 % of control; under setting [5], 97 % of control; (endpoint: mean survival time, dose: 200.0 mg/kg/injection, schedule: Q04DX003 (ip), vehicle: saline with Tween-80) 96 % of control; under setting [6], 97 % of control; (endpoint: mean survival time, dose: 400.0 mg/kg/injection, schedule: Q04DX003 (ip), vehicle: saline with Tween-80) 93 % of control.

Turning to `O=C(CCCCCC(=O)OCCBr)OCCBr`, the T/C by setting is: (endpoint: mean survival time, dose: 50.0 mg/kg/injection, schedule: Q04DX003 (ip), vehicle: saline sonified) 102 % of control; (endpoint: mean survival time, dose: 100.0 mg/kg/injection, schedule: Q04DX003 (ip), vehicle: saline sonified) 100 % of control; (endpoint: mean survival time, dose: 200.0 mg/kg/injection, schedule: Q04DX003 (ip), vehicle: saline sonified) 93 % of control.

Consider `OC(c1ccccc1)(c1ccccc1)c1ccc(CN2CCOCC2)cc1`, for which the T/C (endpoint: mean survival time, dose: 12.5 mg/kg/injection, schedule: Q01DX009 (ip), vehicle: other) is 101 % of control; the T/C (endpoint: mean survival time, dose: 25.0 mg/kg/injection, schedule: Q01DX009 (ip), vehicle: other) was 98 % of control; the T/C (endpoint: mean survival time, dose: 50.0 mg/kg/injection, schedule: Q01DX009 (ip), vehicle: other) was 93 % of control; the T/C (endpoint: mean survival time, dose: 100.0 mg/kg/injection, schedule: Q01DX009 (ip), vehicle: other) is 90 % of control; the T/C (endpoint: mean survival time, dose: 200.0 mg/kg/injection, schedule: Q01DX009 (ip), vehicle: other) is 98 % of control.

Consider `O=c1ncccn1[C@@H]1O[C@H](CO)[C@H](O)C1O` (stereo partly specified), for which the T/C reads like this: (endpoint: median survival time, dose: 25.0 mg/kg/injection, schedule: Q01DX009 (ip), vehicle: saline) 114 % of control and 109 % of control; (endpoint: median survival time, dose: 75.0 mg/kg/injection, schedule: Q04DX003 (ip), vehicle: saline) 102 % of control; (endpoint: median survival time, dose: 100.0 mg/kg/injection, schedule: Q01DX009 (oral), vehicle: saline) 102 % of control; (endpoint: median survival time, dose: 125.0 mg/kg/injection, schedule: Q01DX001 (oral), vehicle: saline) 101 % of control; (endpoint: median survival time, dose: 150.0 mg/kg/injection, schedule: Q04DX003 (ip), vehicle: saline) 106 % of control; (endpoint: median survival time, dose: 200.0 mg/kg/injection, schedule: Q01DX009 (oral), vehicle: saline) 110 % of control. The T/C runs as follows: (endpoint: median survival time, dose: 250.0 mg/kg/injection, schedule: Q01DX001 (oral), vehicle: saline) 102 % of control; (endpoint: median survival time, dose: 300.0 mg/kg/injection, schedule: Q04DX003 (ip), vehicle: saline) 111 % of control; (endpoint: median survival time, dose: 500.0 mg/kg/injection, schedule: Q01DX001 (oral), vehicle: saline) 105 % of control; (endpoint: median survival time, dose: 600.0 mg/kg/injection, schedule: Q04DX003 (ip), vehicle: saline) 114 % of control; (endpoint: median survival time, dose: 800.0 mg/kg/injection, schedule: Q01DX009 (oral), vehicle: saline) 177 % of control; (endpoint: median survival time, dose: 1000.0 mg/kg/injection, schedule: Q01DX001 (oral), vehicle: saline) 107 % of control. For the same molecule, the T/C was 113 % of control (endpoint: median survival time, dose: 1200.0 mg/kg/injection, schedule: Q04DX003 (ip), vehicle: saline); 212 % of control (endpoint: median survival time, dose: 1600.0 mg/kg/injection, schedule: Q01DX009 (oral), vehicle: saline); 115 % of control (endpoint: median survival time, dose: 2000.0 mg/kg/injection, schedule: Q01DX001 (oral), vehicle: saline).

As to `CC(=O)O.[Tl]`, the T/C (endpoint: mean survival time, dose: 20.0 mg/kg/injection, schedule: Q01DX001 (ip), vehicle: saline) is 112 % of control; the T/C (endpoint: mean survival time, dose: 80.0 mg/kg/injection, schedule: Q01DX001 (ip), vehicle: saline) is 97 % of control; the T/C (endpoint: mean survival time, dose: 100.0 mg/kg/injection, schedule: Q01DX001 (ip), vehicle: saline) is 100 % of control; the T/C (endpoint: mean survival time, dose: 200.0 mg/kg/injection, schedule: Q01DX001 (ip), vehicle: saline) was 100 % of control.

With `COC(=O)c1cc(C2OC3OC(C)(C)OC3C2OCc2ccccc2)nn1-c1ccc([N+](=O)[O-])cc1` (stereo unspecified), the T/C by setting is: (endpoint: median survival time, dose: 11.5 mg/kg/injection, schedule: Q01DX005 (ip), vehicle: other) 101 % of control; (endpoint: median survival time, dose: 23.0 mg/kg/injection, schedule: Q01DX005 (ip), vehicle: other) 100 % of control; (endpoint: median survival time, dose: 46.0 mg/kg/injection, schedule: Q01DX005 (ip), vehicle: other) 100 % of control; (endpoint: median survival time, dose: 92.0 mg/kg/injection, schedule: Q01DX005 (ip), vehicle: other) 100 % of control.
